Molecules are shown by their SMILES.

The subject of one data set is RS4;11-BCL-2 D103E cells. As to the kind of experiment: Cell proliferation assay (MTS), RS4;11-BCL-2 D103E engineered cells. It is filed as cell-based. As to conditions: Homo sapiens, 72 h, read-out: RS4, 11 BCL2-D103E IC50. Put shortly:
(§1)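 RS4;11 cells stably overexpressing mutant BCL-2 were seeded and pre-incubated 4 h (G101V, F104L) or 24 h (D103E, D103Y), then exposed to compound at 1.5–10000 nM for 120 h (G101V, F104L) or 72 h (D103E, D103Y) at 37 °C. Viability was read by MTS absorbance at 490 nm after 2 h; IC50 fitted.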

The test system of a further data set is RS4;11-BCL-2 D103Y cells. The data set can be described thus: Cell proliferation assay (MTS), RS4;11-BCL-2 D103Y engineered cells. It is filed as cell-based. Particulars: Homo sapiens, 72 h, read-out: RS4, 11 BCL2-D103Y IC50. An excerpt: MTS testing kit was purchased from Promega (Madison, WI, USA). The RPMI-1640, Fetal bovine serum and Penicillin-Streptomycin were purchased from BI (Biological Industries, Beit Haemek, Israel). Puromycin was purchased from Beyotime (shanghai, China). Dimethyl sulfoxide (DMSO) was purchased from Sigma (St. Louis., MO, USA). RS4;11-BCL-2 G101V (Cobioer Lot. #: CBD2021063013P4), RS4;11-BCL-2 D103E (Cobioer Lot. #: CBD2021063013P4), RS4;11-BCL-2 D103Y (Cobioer Lot. #: CBD2022012101P4) and RS4;11-BCL-2 F104L (Cobioer Lot. #: CBD2021063014P4) cells were cultured in RPMI1640 supplemented with 1 ug/mL puromycin, 100 U/mL Penicillin-Streptomycin and 10% FBS.
To investigate whether a compound is able to inhibit the activity of BCL-2 mutation in cells, a mechanism-based assay using engineered cell lines stably overexpressing BCL-2 mutation (RS4;11-BCL-2 G101V, RS4;11-BCL-2 D103E, RS4;11-BCL-2 D103Y, and RS4;11-BCL-2 F104L) was developed. In this assay, the inhibition of BCL-2 mutation was reflected by the inhibition of cell proliferation of engineered RS4;11 cells. Cells were plated into 96-well plates at optimized cell density (RS4;11-BCL-2 G101V: 5000 cells/well; RS4;11-BCL-2 D103E: 7500 cells/well; RS4;11-BCL-2 D103Y: 7500 cells/well; RS4;11-BCL-2 F104L: 5000 cells/well). Plates were incubated at 37° C., with 5% CO2 for 4 h (RS4;11-BCL-2 G101V, RS4;11-BCL-2 F104L) and 24 h (RS4;11-BCL-2 D103E, RS4;11-BCL-2 D103Y), respectively. Compounds were serially diluted and added to the plates with the final concentrations of 10000, 3333.3, 1111.1, 370.4, 123.5, 41.2, 13.7, 4.6 and 1.5 nM. Plates were incubated at 37° C., with 5% CO2 for 120 h (RS4; 11-BCL-2 G101V, RS4; 11-BCL-2 F104L) and 72 h (RS4;11-BCL-2 D103E, RS4;11-BCL-2 D103Y), respectively. 20 μl MTS was added into each well and the plates were incubated at 37° C., with 5% CO2 exactly for 2 h. The absorbance was measured by a microplate reader at 490 nm. IC50 values were calculated using GraphPad Prism 8.0 software.

The test system of a further data set is RS4;11-BCL-2 G101V cells. The data set can be described thus: Cell proliferation assay (MTS), RS4;11-BCL-2 G101V engineered cells. It is filed as cell-based. As to conditions: Homo sapiens, 120 h, read-out: RS4, 11 BCL2-G101V IC50. A digest of the protocol:
as §1

A further data set relates to Toledo cells. The data set can be described thus: Cell proliferation assay (MTS), Toledo cells. The class given is cell-based. As to conditions: Homo sapiens, 72 h. A digest of the protocol:
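Toledo cells (RPMI-1640, 10% FBS) seeded at 30000 cells/well, rested 4 h, then exposed 72 h at 37 °C, 5% CO2 to compound at nine final concentrations, 1.5–10000 nM. Viability by MTS (2 h), absorbance at 490 nm. IC50 from the concentration-response.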

Another data set relates to RS4;11-BCL-2 F104L cells. The data set can be described thus: Cell proliferation assay (MTS), RS4;11-BCL-2 F104L engineered cells. As to conditions: Homo sapiens, 120 h, read-out: RS4, 11 BCL2-F104L IC50. The class given is cell-based. Put shortly: as §1
Data set [1] is described as follows: Pharmacokinetics assay in rats. It is filed as in vivo. Particulars: rat, male Sprague-Dawley rats, po, 5 mg/kg, plasma. On the procedure:
The purpose of this study was to determine the pharmacokinetics of Examples in male Sprague-Dawley rats (Supplied by Beijing Vital River Laboratory Animal Technology Co., Ltd.) following a single intravenous bolus injection at 1 mg/kg and oral gavage (PO) administration at 5 mg/kg.
Animals in Group 1 were administered with Examples by single intravenous bolus injection at 1 mg/kg, which was formulated in 10% DMSO (Sigma, Batch #LPCOS181): 60% PEG400 (Sigma, Batch #MKCH6281): 30% water, pH 5-6 at 1 mg/mL as a solution. Animals in Group 2 were administered with Examples by single oral gavage (PO) administration at 5 mg/kg, which was formulated in 10% DMSO (Sigma, Batch #BCCD6641): 60% PEG400 (Sigma, Batch #MKCL4921): 30% water at 1 mg/mL as a solution. Blood samples were collected at 0.083, 0.25, 0.5, 1, 2, 4, 8, 12 and 24 hours post-dose. Concentrations of Examples in plasma were determined by LC/MS/MS (LC: Waters UPLC; MS: Triple Quad 6500 plus).

`COc1ccc(CN2CCN(C3CC4(CCN(c5ccc(C(=O)NS(=O)(=O)c6cnc(NC[C@H]7CC[C@](C)(O)CC7)c([N+](=O)[O-])c6)c(Oc6cc7c(F)c[nH]c7nc6OC)c5)CC4)C3)[C@H](c3ccccc3C(C)C)C2)cc1OC` [Example 7, 4-(2-((R)-4-(3,4-dimethoxybenzyl)-2-(2-isopropylphenyl)piperazin-1-yl)-7-azaspiro[3.5]nonan-7-yl)-2-((3-fluoro-6-methoxy-1H-pyrrolo[2,3-b]pyridin-5-yl)oxy)-N-((6-((((1r,4r)-4-hydroxy-4-methylcyclohexyl)methyl)amino)-5-nitropyridin-3-yl)sulfonyl)benzamide]: the half-maximal inhibitory concentration (IC50) (in general, the midpoint of a concentration-inhibition curve) in the data set with RS4;11-BCL-2 D103E cells is 2 nM; in the data set on RS4;11-BCL-2 D103Y cells, 9 nM; with RS4;11-BCL-2 G101V cells, 1 nM; in the data set with Toledo cells it was 1 nM; with RS4;11-BCL-2 F104L cells, 1 nM.
`COc1ccc(CN2CCN(C3CC4(CCN(c5ccc(C(=O)NS(=O)(=O)c6cnc(NC[C@H]7CC[C@](C)(O)CC7)c([N+](=O)[O-])c6)c(Oc6cc7c(F)c[nH]c7nc6OC)c5)CC4)C3)[C@H](c3ccccc3C(C)C)C2)cn1` [Example 119, 2-((3-fluoro-6-methoxy-1H-pyrrolo[2,3-b]pyridin-5-yl)oxy)-N-((6-((((1r,4r)-4-hydroxy-4-methylcyclohexyl)methyl)amino)-5-nitropyridin-3-yl)sulfonyl)-4-(2-((R)-2-(2-isopropylphenyl)-4-((6-methoxypyridin-3-yl)methyl)piperazin-1-yl)-7-azaspiro[3.5]nonan-7-yl)benzamide]: the IC50 was determined as 1 nM in the data set with RS4;11-BCL-2 D103E cells; 10 nM in the data set on RS4;11-BCL-2 D103Y cells; 1 nM in the data set with RS4;11-BCL-2 G101V cells; 1 nM with Toledo cells; 3 nM in the data set on RS4;11-BCL-2 F104L cells.
Turning to `COc1nc2[nH]cc(F)c2cc1Oc1cc(N2CCC3(CC2)CC(N2CCN(Cc4ccncc4)C[C@H]2c2ccccc2C(C)C)C3)ccc1C(=O)NS(=O)(=O)c1cnc(NC[C@H]2CC[C@](C)(O)CC2)c([N+](=O)[O-])c1` [Example 239, 2-((3-fluoro-6-methoxy-1H-pyrrolo[2,3-b]pyridin-5-yl)oxy)-N-((6-((((1r,4r)-4-hydroxy-4-methylcyclohexyl)methyl)amino)-5-nitropyridin-3-yl)sulfonyl)-4-(2-((R)-2-(2-isopropylphenyl)-4-(pyridin-4-ylmethyl)piperazin-1-yl)-7-azaspiro[3.5]nonan-7-yl)benzamide], the IC50 in the data set on RS4;11-BCL-2 D103Y cells stood at 8 nM; with RS4;11-BCL-2 G101V cells, 1 nM; with Toledo cells, 1 nM; with RS4;11-BCL-2 F104L cells, 1 nM.
In the case of `COc1cc(CN2CCN(C3CC4(CCN(c5ccc(C(=O)NS(=O)(=O)c6cnc(NC[C@H]7CC[C@](C)(O)CC7)c([N+](=O)[O-])c6)c(Oc6cc7c(F)c[nH]c7nc6OC)c5)CC4)C3)[C@H](c3ccccc3C(C)C)C2)cnc1C1CC1` [Example 254, 4-(2-((R)-4-((6-cyclopropyl-5-methoxypyridin-3-yl)methyl)-2-(2-isopropylphenyl)piperazin-1-yl)-7-azaspiro[3.5]nonan-7-yl)-2-((3-fluoro-6-methoxy-1H-pyrrolo[2,3-b]pyridin-5-yl)oxy)-N-((6-((((1r,4r)-4-hydroxy-4-methylcyclohexyl)methyl)amino)-5-nitropyridin-3-yl)sulfonyl)benzamide], the half-inhibitory concentration (IC50) in the data set with RS4;11-BCL-2 D103Y cells was 3 nM; with RS4;11-BCL-2 G101V cells, 1 nM; with Toledo cells, 1 nM; in the data set on RS4;11-BCL-2 F104L cells it was 3 nM.
`COc1cc(CN2CCN(C3CC4(CCN(c5ccc(C(=O)NS(=O)(=O)c6cnc(NC[C@H]7CC[C@](C)(O)CC7)c([N+](=O)[O-])c6)c(Oc6cnc7[nH]cc(F)c7c6)c5)CC4)C3)[C@H](c3ccccc3C(C)C)C2)cnc1C1CC1` [Example 255, 4-(2-((R)-4-((6-cyclopropyl-5-methoxypyridin-3-yl)methyl)-2-(2-isopropylphenyl)piperazin-1-yl)-7-azaspiro[3.5]nonan-7-yl)-2-((3-fluoro-1H-pyrrolo[2,3-b]pyridin-5-yl)oxy)-N-((6-((((1r,4r)-4-hydroxy-4-methylcyclohexyl)methyl)amino)-5-nitropyridin-3-yl)sulfonyl)benzamide]: the half-maximal inhibitory concentration (IC50) came to 3 nM in the data set on RS4;11-BCL-2 D103E cells; 1 nM in the data set on RS4;11-BCL-2 D103Y cells; 1 nM in the data set on RS4;11-BCL-2 G101V cells; 1 nM in the data set on Toledo cells; 3 nM in the data set on RS4;11-BCL-2 F104L cells.
Take `COc1nc2[nH]cc(F)c2cc1Oc1cc(N2CCC3(CC2)CC(N2CCN(Cc4ccc(OC(F)F)cc4)C[C@H]2c2ccccc2C(C)C)C3)ccc1C(=O)NS(=O)(=O)c1cnc(NC[C@H]2CC[C@](C)(O)CC2)c([N+](=O)[O-])c1` [Example 344, 4-(2-((R)-4-(4-(difluoromethoxy)benzyl)-2-(2-isopropylphenyl)piperazin-1-yl)-7-azaspiro[3.5]nonan-7-yl)-2-((3-fluoro-6-methoxy-1H-pyrrolo[2,3-b]pyridin-5-yl)oxy)-N-((6-((((1r,4r)-4-hydroxy-4-methylcyclohexyl)methyl)amino)-5-nitropyridin-3-yl)sulfonyl)benzamide]: the IC50 in the data set on RS4;11-BCL-2 D103E cells came out at 1 nM; in the data set on RS4;11-BCL-2 D103Y cells it was 10 nM; in the data set with RS4;11-BCL-2 G101V cells, 1 nM; in the data set with Toledo cells it was 1 nM; in the data set with RS4;11-BCL-2 F104L cells, 1 nM. Also, in data set [1], the AUC(0-t) – broadly, exposure summed from dosing to a finite time, without extrapolation to infinity – is 5910 ng·h/mL. Moreover, the half-life (usually how long it takes for the measured level to halve) in data set [1] is 28.9 h. In addition, the Cmax in data set [1] (read-out: Cmax/C0) is 406 ng/mL.

(Values after patent publication US20250122191A1, “COMPOUNDS AS BCL-2 INHIBITORS” (Fochon Biosciences, Ltd, priority 2021, published 2025).)
